Experimental data from patent US8318186B2, “Use of at least a fatty ester for preparing a composition designed to inhibit 5-α-reductase activity, in pharmacology, in particular dermatology, in cosmetics and as food additive” (Laboratoires Expanscience, priority 2000, dated 2012).
Several values for one entry are separate records, joined by “and”; a condition that tells them apart may be missing. Equal values may be shown once. Marks after values point to notes of the source that are not given here.

System: 5α-reductase
Assay: Fatty acid esters on 5α-reductase activity, conversion of testosterone to 5α-dihydrotestosterone in normal human dermal fibroblast cultures (Example 4)
Format: cell-based
Set-up: key to group by 5α-reductase inhibitory activity: group A with the highest inhibitory activity; group B with an intermediate inhibitory activity
Conditions: for inhibition of the 5α-reductase activity: Example 4, p<0.05; for 5α-DHT formed per culture well, mean / 5α-DHT formed per culture well, single well: after 24 of incubation, DMSO 0.1% (v/v); for 5α-DHT formed per culture well, single well: single replicate; for group by 5α-reductase inhibitory activity: tested at 1, 10 and 100 μg/ml
Experimental: The fibroblast culture medium (FCM) consisted of MEM/M199 (3:1, v/v) supplemented with penicillin (50 IU/ml), streptomycin (50 μg/ml), sodium bicarbonate (0.2%, w/v) and FCS (10%, v/v).
The assay system consisted of normal human dermal fibroblasts cultured as a monolayer. The fibroblasts were isolated from a residue from abdominal plastic surgery performed on a person (subject BIOPREDIC No. I0013). The cells were used at the fifth passage; they were cultured until the monolayers were confluent in FCM medium at 37° C. in a humid atmosphere containing 5% CO2.
The fibroblast incubation medium (FIM) consisted of FCM supplemented with tritiated testosterone (1.6×10^−7 M, that is 6.32 μCi/ml) and nonradiolabeled testosterone (3.84×10^−6 M)
The test products and finasteride were taken up in DMSO before being diluted in the incubation medium. […]
The fibroblast cultures were preincubated in the presence of the test products or of the reference product for 2 hours before adding the substrate, testosterone. For this step, the test products and the reference product were prepared in the FCM medium.
After preincubation, the fibroblast cultures were incubated in the presence of the test products or of the reference product prepared in the FIM medium for 22 hours at 37° C. in a humid atmosphere containing 5% CO2. Control cultures were incubated in the FIM medium in the absence of test products and of reference product. […]
Each experimental condition was tested in triplicate.
After the incubation period, the cells were subjected to the action of ultrasound in the FIM medium. The cellular lysates thus obtained were extracted with dichloromethane. After evaporation, the dry residues were taken up in methanol and were deposited on 60F254 silica plates (MERCK, reference 5554).
The migration solvent was a mixture of dichloromethane and ether (7:3, v/v) At the end of the migration, the silica plates were read using a BERTHOLD radioactivity scanner.
The metabolizing of testosterone to 5α-dihydro-testosterone under the various experimental conditions was calculated: the results (areas of the 5α-dihydrotestosterone peaks counted by the BERTHOLD scanner) were expressed in pmol of 5α-dihydro-testosterone formed per culture well. They were also expressed as a percentage of the 5α-reductase activity present in the “DMSO control” group.
The groups of data (control group and treated groups) were treated by a one-way analysis of variance (ANOVA 1, p<0.05), followed by a DUNNETT's test (p<0.05). The effect of the test products and of the reference product was compared with the “DMSO control” group. The effects of the test products were compared to each other by a two-way analysis of variance (ANOVA 2, p<0.05, factor 1=concentration and factor 2=treatment).
The same materials and methods are used as in example 3 above.
It was proposed to evaluate the effect of fatty acid esters on the 5α-reductase activity. An in vitro model of normal human dermal fibroblast cultures was selected. The products tested were chosen from the group of fatty acid esters varying in the length and the functionality of the fatty chain, and the nature of the alkoxy group. These esters are the following: methyl oleate, methyl linoleate, methyl stearate, methyl laurate, methyl undecylenate, butyl oleate, oleyl oleate and methyl ricinoleate.

Row | Compound | 5α-reductase activity as percentage of the “DMSO 0.1% (v/v)” group (1 μg/ml) | inhibition of the 5α-reductase activity (1 μg/ml) [%] | 5α-DHT formed per culture well, mean (1 μg/ml) | 5α-DHT formed per culture well, single well (1 μg/ml) | 5α-reductase activity as percentage of the “DMSO 0.1% (v/v)” group (10 μg/ml) | inhibition of the 5α-reductase activity (10 μg/ml) [%] | 5α-DHT formed per culture well, mean (10 μg/ml) | 5α-DHT formed per culture well, single well (10 μg/ml) | 5α-reductase activity as percentage of the “DMSO 0.1% (v/v)” group (100 μg/ml) | inhibition of the 5α-reductase activity (100 μg/ml) [%] | 5α-DHT formed per culture well, mean (100 μg/ml) | 5α-DHT formed per culture well, single well (100 μg/ml) | group by 5α-reductase inhibitory activity
1 | CCCCCCCC/C=C\CCCCCCCC(=O)OCCCC [Butyl oleate, butyl oleate] | 79 percentage of the “DMSO 0.1% (v/v)” group | 21 | 9.00* +/− pmol of 5α-DHT formed/culture well | 10.64 pmol of 5α-DHT formed/culture well and 8.28 pmol of 5α-DHT formed/culture well and 8.08 pmol of 5α-DHT formed/culture well | 55 percentage of the “DMSO 0.1% (v/v)” group | 45 | 6.21* +/− pmol of 5α-DHT formed/culture well | 6.24 pmol of 5α-DHT formed/culture well and 5.04 pmol of 5α-DHT formed/culture well and 7.36 pmol of 5α-DHT formed/culture well | 51 percentage of the “DMSO 0.1% (v/v)” group | 49 | 5.77* +/− pmol of 5α-DHT formed/culture well | 5.20 pmol of 5α-DHT formed/culture well and 6.72 pmol of 5α-DHT formed/culture well and 5.40 pmol of 5α-DHT formed/culture well | A
2 | CCCCCCCCCCCC(=O)OC [Methyl laurate, methyl laurate] | 57 percentage of the “DMSO 0.1% (v/v)” group |  | 6.49* +/− pmol of 5α-DHT formed/culture well | 5.76 pmol of 5α-DHT formed/culture well and 6.88 pmol of 5α-DHT formed/culture well and 6.84 pmol of 5α-DHT formed/culture well | 77 percentage of the “DMSO 0.1% (v/v)” group |  | 8.75 pmol of 5α-DHT formed/culture well | 6.84 pmol of 5α-DHT formed/culture well and 9.88 pmol of 5α-DHT formed/culture well and 9.52 pmol of 5α-DHT formed/culture well | 86 percentage of the “DMSO 0.1% (v/v)” group |  | 9.80 pmol of 5α-DHT formed/culture well | 8.48 pmol of 5α-DHT formed/culture well and 11.96 pmol of 5α-DHT formed/culture well and 8.96 pmol of 5α-DHT formed/culture well | B
3 | CCCCC/C=C\C/C=C\CCCCCCCC(=O)OC [Methyl linoleate, methyl linoleate] | 58 percentage of the “DMSO 0.1% (v/v)” group | 42 | 6.60* +/− pmol of 5α-DHT formed/culture well | 7.04 pmol of 5α-DHT formed/culture well and 6.40 pmol of 5α-DHT formed/culture well and 6.36 pmol of 5α-DHT formed/culture well | 60 percentage of the “DMSO 0.1% (v/v)” group | 40 | 6.87* +/− pmol of 5α-DHT formed/culture well | 6.00 pmol of 5α-DHT formed/culture well and 6.60 pmol of 5α-DHT formed/culture well and 8.00 pmol of 5α-DHT formed/culture well | 71 percentage of the “DMSO 0.1% (v/v)” group | 29 | 8.05* +/− pmol of 5α-DHT formed/culture well | 8.56 pmol of 5α-DHT formed/culture well and 8.04 pmol of 5α-DHT formed/culture well and 7.56 pmol of 5α-DHT formed/culture well | B
4 | CCCCCC[C@@H](O)C/C=C\CCCCCCCC(=O)OC [Methyl ricinoleate, methyl ricinoleate] | 63 percentage of the “DMSO 0.1% (v/v)” group | 37 | 7.19* +/− pmol of 5α-DHT formed/culture well | 6.52 pmol of 5α-DHT formed/culture well and 8.36 pmol of 5α-DHT formed/culture well and 6.68 pmol of 5α-DHT formed/culture well | 62 percentage of the “DMSO 0.1% (v/v)” group | 38 | 7.04* +/− pmol of 5α-DHT formed/culture well | 7.84 pmol of 5α-DHT formed/culture well and 7.40 pmol of 5α-DHT formed/culture well and 5.88 pmol of 5α-DHT formed/culture well | 38 percentage of the “DMSO 0.1% (v/v)” group | 62 | 4.33* +/− pmol of 5α-DHT formed/culture well | 3.68 pmol of 5α-DHT formed/culture well and 4.52 pmol of 5α-DHT formed/culture well and 4.80 pmol of 5α-DHT formed/culture well | A
5 | CCCCCCCCCCCCCCCCCC(=O)OC [Methyl stearate, methyl stearate] | 59 percentage of the “DMSO 0.1% (v/v)” group | 41 | 6.69* +/− pmol of 5α-DHT formed/culture well | 6.92 pmol of 5α-DHT formed/culture well and 6.08 pmol of 5α-DHT formed/culture well and 7.08 pmol of 5α-DHT formed/culture well | 65 percentage of the “DMSO 0.1% (v/v)” group | 35 | 7.43* +/− pmol of 5α-DHT formed/culture well | 8.80 pmol of 5α-DHT formed/culture well and 6.72 pmol of 5α-DHT formed/culture well and 6.76 pmol of 5α-DHT formed/culture well | 57 percentage of the “DMSO 0.1% (v/v)” group | 43 | 6.52* +/− pmol of 5α-DHT formed/culture well | 6.88 pmol of 5α-DHT formed/culture well and 5.92 pmol of 5α-DHT formed/culture well and 6.76 pmol of 5α-DHT formed/culture well | B
6 | C=CCCCCCCCCC(=O)OC [Methyl undecylenate, methyl undecylenate] | 60 percentage of the “DMSO 0.1% (v/v)” group | 40 | 6.89* +/− pmol of 5α-DHT formed/culture well | 6.56 pmol of 5α-DHT formed/culture well and 7.44 pmol of 5α-DHT formed/culture well and 6.68 pmol of 5α-DHT formed/culture well | 68 percentage of the “DMSO 0.1% (v/v)” group | 32 | 7.71* +/− pmol of 5α-DHT formed/culture well | 7.68 pmol of 5α-DHT formed/culture well and 7.84 pmol of 5α-DHT formed/culture well and 7.60 pmol of 5α-DHT formed/culture well | 74 percentage of the “DMSO 0.1% (v/v)” group | 26 | 8.48* +/− pmol of 5α-DHT formed/culture well | 8.68 pmol of 5α-DHT formed/culture well and 7.76 pmol of 5α-DHT formed/culture well and 9.00 pmol of 5α-DHT formed/culture well | B
